Patent US20160083391A1, “TRICYCLIC PIPERAZINE DERIVATIVE” (Sunovion Pharmaceuticals Inc., priority 2014, published 2016)
One block for each compound: values may come before it.

System: PDE1
Assay: In vitro HTRF PDE1 inhibition assay
Type: biochemical
Details: HTRF cGMP assay, 100 nM cyclic GMP, PDE (1A3, 1B or 1C) with calmodulin, 45 minutes at 37° C.; isoform of the tabulated values not stated
In short: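 Activities are given as IC50 bands (<1, 1-10, >10 μM) derived from a 665/615 nm time-resolved FRET readout after d2-cGMP/anti-cGMP cryptate detection. Enzymes PDE1A3, 1B or 1C plus calmodulin were incubated 45 min at 37 °C with 100 nM cGMP, 1% DMSO, CaCl2/MgCl2 Tris buffer pH 7.4.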

Structure (SMILES): COc1ccc(CN2CCn3c(nc4c(ncn4C4CCCC4)c3=O)C2)cc1 [Compound I-125, 3-Cyclopentyl-6-(4-methoxybenzyl)-5,6,7,8-tetrahydropyrazino[1,2-a]purin-10(3H)-one]
IC50: > 10 µM

Structure (SMILES): CC(C)n1ncc2c(=O)n3c(nc21)CNC(c1ccccc1)C3 (racemic) [Compound I-106, (±)-1-isopropyl-7-phenyl-6,7,8,9-tetrahydropyrazino[1,2-a]pyrazolo[3,4-d]pyrimidin-4(1H)-one]
IC50: > 10 µM

Structure (SMILES): Cc1ncc(CN2CCn3c(nc4c(cnn4C(C)C)c3=O)C2)cn1 [Compound I-194, 1-Isopropyl-8-((2-methylpyrimidin-5-yl)methyl)-6,7,8,9-tetrahydropyrazino[1,2-a]pyrazolo[3,4-d]pyrimidin-4(1H)-one]
IC50: > 10 µM

Structure (SMILES): CC1c2nc3c(cnn3C)c(=O)n2CCN1C (racemic) [Compound I-20, (±)-1,8,9-Trimethyl-6,7,8,9-tetrahydropyrazino[1,2-a]pyrazolo[3,4-d]pyrimidin-4(1H)-one]
IC50: > 10 µM

Structure (SMILES): CC(C)c1n[nH]c2c(=O)n3c(nc12)C(Cc1ccccc1)N(Cc1ccccc1)CC3 (racemic) [Compound I-45, (±)-5,6-dibenzyl-3-isopropyl-5,6,7,8-tetrahydropyrazino[1,2-a]pyrazolo[4,3-d]pyrimidin-10(1H)-one]
IC50: > 10 µM

Structure (SMILES): CC(C)c1nn(C)c2c(=O)n3c(nc12)C(Cc1ccccc1)N(Cc1ccccc1)CC3 (racemic) [Compound I-48, (±)-5,6-Dibenzyl-3-isopropyl-1-methyl-5,6,7,8-tetrahydropyrazino[1,2-a]pyrazolo[4,3-d]pyrimidin-10(1H)-one]
IC50: > 10 µM

Structure (SMILES): CC(C)c1nn(C)c2c(=O)n3c(nc12)CN(C)CC3 [Compound I-40, 3-Isopropyl-1,6-dimethyl-5,6,7,8-tetrahydropyrazino[1,2-a]pyrazolo[4,3-d]pyrimidin-10(1H)-one]
IC50: > 10 µM

Structure (SMILES): CC(C)c1nn(C)c2c(=O)n3c(nc12)C(C)N(Cc1ccccc1)CC3 (racemic) [Compound I-47, (±)-6-Benzyl-3-isopropyl-1,5-dimethyl-5,6,7,8-tetrahydropyrazino[1,2-a]pyrazolo[4,3-d]pyrimidin-10(1H)-one]
IC50: > 10 µM

Structure (SMILES): O=c1c2ncn(C3CCCC3)c2nc2n1CCN(Cc1ccc(Cl)cc1)C2 [Compound I-126, 6-(4-Chlorobenzyl)-3-cyclopentyl-5,6,7,8-tetrahydropyrazino[1,2-a]purin-10(3H)-one]
IC50: > 10 µM

Structure (SMILES): CC(C)c1n[nH]c2c(=O)n3c(nc12)C(C)N(Cc1ccccc1)CC3 (racemic) [Compound I-44, (±)-6-Benzyl-3-isopropyl-5-methyl-5,6,7,8-tetrahydropyrazino[1,2-a]pyrazolo[4,3-d]pyrimidin-10(1H)-one]
IC50: > 10 µM

Structure (SMILES): CC(C)Cn1ncc2c(=O)n3c(nc21)CN(Cc1ccccc1)CC3 [Compound I-51, 8-Benzyl-1-isobutyl-6,7,8,9-tetrahydropyrazino[1,2-a]pyrazolo[3,4-d]pyrimidin-4(1H)-one]
IC50: 1 to 10 µM

Structure (SMILES): O=c1c2cnn(C3CCCC3)c2nc2n1CCN(CCc1ccc(Cl)cc1)C2 [Compound I-243, 8-(4-Chlorophenethyl)-1-cyclopentyl-6,7,8,9-tetrahydropyrazino[1,2-a]pyrazolo[3,4-d]pyrimidin-4(1H)-one]
IC50: 1 to 10 µM

Structure (SMILES): CN1CCn2c(nc3c(cnn3-c3ccccc3)c2=O)C1 [Compound I-19, 8-Methyl-1-phenyl-6,7,8,9-tetrahydropyrazino[1,2-a]pyrazolo[3,4-d]pyrimidin-4(1H)-one]
IC50: > 10 µM

Structure (SMILES): O=c1c2cnn(-c3ccccc3)c2nc2n1CCN(Cc1ccccc1)C2Cc1ccccc1 (racemic) [Compound I-37, (±)-8,9-Dibenzyl-1-phenyl-6,7,8,9-tetrahydropyrazino[1,2-a]pyrazolo[3,4-d]pyrimidin-4(1H)-one]
IC50: > 10 µM

Structure (SMILES): COCCn1ncc2c(=O)n3c(nc21)CN(Cc1cccc(OC)c1)CC3 [Compound I-161, 8-(3-Methoxybenzyl)-1-(2-methoxyethyl)-6,7,8,9-tetrahydropyrazino[1,2-a]pyrazolo[3,4-d]pyrimidin-4(1H)-one]
IC50: > 10 µM

Structure (SMILES): CC1c2nc3c(cnn3-c3ccccc3)c(=O)n2CCN1C (racemic) [Compound I-22, (±)-8,9-Dimethyl-1-phenyl-6,7,8,9-tetrahydropyrazino[1,2-a]pyrazolo[3,4-d]pyrimidin-4(1H)-one]
IC50: > 10 µM

Next, values leading:

IC50: 1 to 10 µM
Structure (SMILES): CCCn1ncc2c(=O)n3c(nc21)CN(Cc1ccc(Cl)c(Cl)c1)CC3 [Compound I-165, 8-(3,4-Dichlorobenzyl)-1-propyl-6,7,8,9-tetrahydropyrazino[1,2-a]pyrazolo[3,4-d]pyrimidin-4(1H)-one]

IC50: < 1 µM
Structure (SMILES): CCOc1cccc(N2CCn3c(nn4c(C(C)C)ncc4c3=O)C2)c1 [Compound I-173, 7-(3-Ethoxyphenyl)-3-isopropyl-8,9-dihydro-6H-imidazo[5,1-f]pyrazino[2,1-c][1,2,4]triazin-11(7H)-one]

IC50: 1 to 10 µM
Structure (SMILES): CC(C)Cc1nnc2c(=O)n3c(nn12)CN(Cc1ccncc1)CC3 [Compound I-228, 3-Isobutyl-7-(pyridin-4-ylmethyl)-8,9-dihydro-6H-pyrazino[2,1-c][1,2,4]triazolo[3,4-f][1,2,4]triazin-11(7H)-one]

IC50: 1 to 10 µM
Structure (SMILES): O=c1c2cnn(C3CCOC3)c2nc2n1CCN(Cc1ccc(Cl)cc1)C2 (racemic) [Compound I-220, (±)-8-(4-Chlorobenzyl)-1-(tetrahydrofuran-3-yl)-6,7,8,9-tetrahydropyrazino[1,2-a]pyrazolo[3,4-d]pyrimidin-4(1H)-one]

IC50: < 1 µM
Structure (SMILES): CCOc1cccc(N2CCn3c(nn4c(C5CCCC5)ncc4c3=O)C2)c1 [Compound I-180, 3-Cyclopentyl-7-(3-ethoxyphenyl)-8,9-dihydro-6H-imidazo[5,1-f]pyrazino[2,1-c][1,2,4]triazin-11(7H)-one]

IC50: 1 to 10 µM
Structure (SMILES): CCC1Cn2c(nc3c(cnn3C(C)C)c2=O)CN1Cc1ccc(OC)cc1 (racemic) [Compound I-153, (±)-7-Ethyl-1-isopropyl-8-(4-methoxybenzyl)-6,7,8,9-tetrahydropyrazino[1,2-a]pyrazolo[3,4-a]pyrimidin-4(1H)-one]

IC50: 1 to 10 µM
Structure (SMILES): O=c1c2cnc(C3CCNCC3)n2nc2n1CCN(c1ccc(Cl)cc1)C2 [Compound I-252, 7-(4-Chlorophenyl)-3-(piperidin-4-yl)-8,9-dihydro-6H-imidazo[5,1-f]pyrazino[2,1-c][1,2,4]triazin-11(7H)-one]

IC50: < 1 µM
Structure (SMILES): CCCn1ncc2c(=O)n3c(nc21)CN(c1ccc(Cl)cc1)CC3 [Compound I-167, 8-(4-Chlorophenyl)-1-propyl-6,7,8,9-tetrahydropyrazino[1,2-a]pyrazolo[3,4-d]pyrimidin-4(1H)-one]

IC50: < 1 µM
Structure (SMILES): CC(C)n1ncc2c(=O)n3c(nc21)CN(c1ccc(Cl)cn1)CC3 [Compound I-241, 8-(5-Chloropyridin-2-yl)-1-isopropyl-6,7,8,9-tetrahydropyrazino[1,2-a]pyrazolo[3,4-d]pyrimidin-4(1H)-one]

IC50: < 1 µM
Structure (SMILES): O=c1c2cnn(C3CCCC3)c2nc2n1CCN(c1ccccc1)C2 [Compound I-95, 1-Cyclopentyl-8-phenyl-6,7,8,9-tetrahydropyrazino[1,2-a]pyrazolo[3,4-d]pyrimidin-4(1H)-one]

IC50: 1 to 10 µM
Structure (SMILES): COCCn1ncc2c(=O)n3c(nc21)CN(c1ccc(Cl)c(Cl)c1)CC3 [Compound I-257, 8-(3,4-Dichlorophenyl)-1-(2-methoxyethyl)-6,7,8,9-tetrahydropyrazino[1,2-a]pyrazolo[3,4-d]pyrimidin-4(1H)-one]

IC50: 1 to 10 µM
Structure (SMILES): COc1ccc(CN2Cc3nc4c(cnn4C4CCCC4)c(=O)n3C(C)C2)cc1 (racemic) [Compound I-122, (±)-1-Cyclopentyl-8-(4-methoxybenzyl)-6-methyl-6,7,8,9-tetrahydropyrazino[1,2-a]pyrazolo[3,4-d]pyrimidin-4(1H)-one]

IC50: < 1 µM
Structure (SMILES): Cc1ccc(CN2CCn3c(nn4c(C5CCCC5)ncc4c3=O)C2)cn1 [Compound I-189, 3-Cyclopentyl-7-((6-methylpyridin-3-yl)methyl)-8,9-dihydro-6H-imidazo[5,1-f]pyrazino[2,1-c][1,2,4]triazin-11(7H)-one]

IC50: 1 to 10 µM
Structure (SMILES): O=c1c2cnn(C3CCCC3)c2nc2n1CCN(c1cccc(Cl)c1)C2 [Compound I-90, 8-(3-Chlorophenyl)-1-cyclopentyl-6,7,8,9-tetrahydropyrazino[1,2-a]pyrazolo[3,4-d]pyrimidin-4(1H)-one]

IC50: < 1 µM
Structure (SMILES): Cc1ccc(CN2CCn3c(nc4c(cnn4C4CCCC4)c3=O)C2)cn1 [Compound I-187, 1-Cyclopentyl-8-((6-methylpyridin-3-yl)methyl)-6,7,8,9-tetrahydropyrazino[1,2-a]pyrazolo[3,4-d]pyrimidin-4(1H)-one]

IC50: 1 to 10 µM
Structure (SMILES): O=c1c2cnc(C3CCOC3)n2nc2n1CCN(Cc1ccc(Cl)cc1)C2 (racemic) [Compound I-233, (±)-7-(4-Chlorobenzyl)-3-(tetrahydrofuran-3-yl)-8,9-dihydro-6H-imidazo[5,1-f]pyrazino[2,1-c][1,2,4]triazin-11(7H)-one]

IC50: 1 to 10 µM
Structure (SMILES): CCCn1ncc2c(=O)n3c(nc21)CN(Cc1ccc(OC)cc1)CC3 [Compound I-164, 8-(4-Methoxybenzyl)-1-propyl-6,7,8,9-tetrahydropyrazino[1,2-a]pyrazolo[3,4-d]pyrimidin-4(1H)-one]

IC50: < 1 µM
Structure (SMILES): COc1ccc(C(=O)N2CCn3c(nc4c(cnn4C4CCCC4)c3=O)C2)cc1 [Compound I-116, 1-Cyclopentyl-8-(4-methoxybenzoyl)-6,7,8,9-tetrahydropyrazino[1,2-a]pyrazolo[3,4-d]pyrimidin-4(1H)-one]

IC50: < 1 µM
Structure (SMILES): COc1cccc(N2CCn3c(nn4c(C5CCCC5)ncc4c3=O)C2)c1 [Compound I-181, 3-Cyclopentyl-7-(3-methoxyphenyl)-8,9-dihydro-6H-imidazo[5,1-f]pyrazino[2,1-c][1,2,4]triazin-11(7H)-one]

IC50: < 1 µM
Structure (SMILES): COc1ccc(CN2Cc3nc4c(cnn4C4CCCC4)c(=O)n3CC2C)cc1 (racemic) [Compound I-120, (±)-1-Cyclopentyl-8-(4-methoxybenzyl)-7-methyl-6,7,8,9-tetrahydropyrazino[1,2-a]pyrazolo[3,4-d]pyrimidin-4(1H)-one]
